According to patent publication US20140302217A1, “PRESERVATIVE COMBINATIONS COMPRISING PROPIONIC ACID AND VANILLIN AND/OR CINNAMIC ACID” (Purac Biochem B.V., priority 2011, published 2014):

Columns and labels:
[1] = system: Penicillium sp (Pen381); assay: MEA agar plate colony growth test; assay type: cell-based; details: single component, agar plates
Procedure: (§1) Each experiment existed of 10 MEA agar plates containing a successive amount of component, starting from 0 ppm to the maximal used concentration.
(§2) MEA was prepared by dissolving 20 g of Malt extract (Difco, England), 1 g of Peptone (Becton Dickinson, USA), 20 g of glucose and 20 g of bacteriological agar (No. 1. Oxoid, England) in 11 of dematerialized water. The pH was adjusted to 3.2 by adding 5.9 ml of Hcl 1M after heat sterilization.
(§3) A stock solution was made for each component. The stock was 25 times the maximal used concentration. A successive amount from 0 to 900 μl of these stocks, making the concentration range, was pipetted in 10, 50 ml capped test tubes.
(§4) Subsequently, 25 ml of warm (80-90° C.) MEA agar was pipetted, using a sterile 25 ml pipette, in the tubes and the tubes were vortexed slowly but vigorously. Next, the component containing agar was poured out in 9 cm Petri dishes. Besides single components against single moulds, combinations of propionate with potassium cinnamate or vanillin were tested on solid agar. To prepare these binary combinations 6.25 ml of a 4 times concentrated component was mixed with the other components that was also 4 times concentrated. The mix of components were mixed with 12.5 ml double concentrated MEA to reach the preferred concentrations.
(§5) After the plates were dried a dot was spotted at the backside and in the centre of the petridish 0.5 μl of the mould spore solution was spotted on the agar targeting the dot in the centre. When the drop was dried in, the plates were placed bottom down in the incubator at 25° C.
(§6) The growth of colonies was determined by measurement of the colony diameter at different points in time. The growth curves were converted to dose response curves as described in 2.6.
(§7) The data from the agar plate experiments were obtained by measuring the colony size changes. The change in time was interpreted as growth speed and growth curves were plotted.
(§8) To convert the growth curves to dose response curves the μ Max (maximum growth rate) was calculated per concentration of antimicrobial component. The curves were fitted to a Logistic Dose Response (LDR) Intercept Form (Equation 8013) using Table curve 2D version 5.1

[2] = system: mould cocktail; assay: combinations of components in model drink in 96-well microtiter plates, visual observation of growth; assay type: cell-based, Fusarium oxisporum, Byssoaclamys fulva, Penicillium sp; details: 3 weeks at 20°
Procedure: The tests where two components or more components were combined in model drink were carried out in sterile 96-well microtiter plates. Sterile matrix was prepared according recipe of Nestle with increasing quantities of two different inhibitors. The concentrations of each inhibitor were presented in 8 equal concentration steps that ranged from 0 to 1-2 times the (estimated) MIC value of particular mould for a particular inhibitor resulting in 64 different media. 200 μl of each medium was transferred to a panel of a sterile 96-well microtiter plate.
Completed well plates were stored at 4° C. until further use. The data was obtained via optical observation of growth.
Spores of all moulds were collected via the method as described in 2.3. Spores were counted using the Burker-turk method and adjusted to a log 5 per ml in PFZ and mixed to a homologue suspension. This suspension was diluted 100 times for inoculation.
In order to have an idea of the efficacy of the combination of propionate, vanillin and potassium cinnamate in model drink, some experiments were done in microwells plates. These experiments were visually observed after 3 weeks of incubation at 20° and used as pre-application experiments in order to create an expectation for the efficacy of the components in long term application experiments. The data that is shown in table 5 below is divided in “+” and “−”. The “+” means visible growth, while the “−” means no visible growth of the mould cocktail at the specific concentrations. […] However, combined with an amount of nearly 400 ppm of propionate and 75 ppm of vanillin the model drink is stable for at least 3 weeks.

[3] = system: Byssoaclamys fulva (Bysful2); assay: MEA agar plate colony growth test; assay type: cell-based; details: single component, agar plates
Procedure: as §1, §2, §3, §4, §5, §6, §7, §8

[4] = system: pure cultures of moulds; assay: single components and binary combinations on MEA agar plates against pure cultures of moulds (colony diameter); assay type: cell-based, Fusarium oxisporum, Byssoaclamys fulva, Penicillium sp
Procedure: as §1, §2, §3, §4, §5, §6, §7
To convert the growth curves to dose response curves the μ Max (maximum growth rate) was calculated per concentration of antimicrobial component. […]

Structure (SMILES) | growth of Penicillium ([1]; after 100 ppm) | inhibition of Penicillium ([1]; levels up to 200 ppm) | inhibition of the growth of the mould cocktail ([2]; 350 ppm alone) | visible growth of mould cocktail ([2]; Kcinnamate 0.0050% (w/v)) | visible growth of mould cocktail ([2]; Kcinnamate 0.0100% (w/v)) | visible growth of mould cocktail ([2]; Kcinnamate 0.0150% (w/v)) | visible growth of mould cocktail ([2]; Kcinnamate 0.0200% (w/v)) | visible growth of mould cocktail ([2]; Kcinnamate 0.0250% (w/v)) | visible growth of mould cocktail ([2]; Kcinnamate 0.0300% (w/v)) | visible growth of mould cocktail ([2]; Kcinnamate 0.0350% (w/v)) | concentration at which Byssoclamys is inhibited [3] | concentration at which Penicillium is inhibited [1] | sensitivity of all moulds to the component [4] | amount needed for an overall inhibition of all moulds ([4]; single component, also printed as 900 ppm)
O=C([O-])C=Cc1ccccc1.[K+] [potassium cinnamate] | dramatic increase | not inhibited | not sufficient | + | + | + | + | + | + | + |  |  |  | 
CCC(=O)O [propionate, Propionic acid] |  |  |  |  |  |  |  |  |  |  | approximately 0.15% | approximately 0.15% | sensitive | 
COc1cc(C=O)ccc1O [vanillin, 4-Hydroxy-3-methoxybenzaldehyde] |  |  |  |  |  |  |  |  |  |  |  |  | sensitive | approximately 0.09%
